{"source": "patent US10406232B2", "about": "“Oral delivery compositions for treating dermatitis disorders in mammals” (Vets Plus, Inc., priority 2015, dated 2019)", "origin": "cited, not measured here", "tested_on": "dendritic cells (DCs)", "details": "through sequential p38 MAP kinase phosphorylation and caspase 3-activation", "data": [{"molecule": "CC(C)[C@]12O[C@H]1[C@@H]1O[C@]13[C@]1(O[C@H]1C[C@H]1C4=C(CC[C@@]13C)C(=O)OC4)[C@@H]2O", "note": "[triptolide]", "values": [{"measurement": "concentration that induces apoptosis of DCs", "result": "≥ 20", "unit": "ng/mL"}]}]}
